Test results published in ChEMBL document CHEMBL1212907, “Activity of physalin F in a collagen-induced arthritis model” (J Nat Prod, 2010).
Calls of active or inactive are those of the source. No cut-off for these calls is given here.

Experiments:
Format in all cases: functional, organism-based
Mus musculus [1] = test: Immunomodulatory activity in ip dosed mouse lung assessed as reduction in modulation of mucus production at 60 mg/kg; set-up: dose 60 mg/kg
Mus musculus [2] = test: Antiinflammatory activity against collagen-induced arthritis in po dosed mouse assessed as inhibition of paw edema at 20 mg/kg, po after 20 days; set-up: dose 20 mg/kg
Mus musculus [3] = species on record: Mus musculus; test: Immunomodulatory activity in mouse assessed as reduction in ovalbumin-induced TH2 cytokine secretion by ELISA
Mus musculus [4] = test: Immunomodulatory activity in ip dosed mouse lung assessed as reduction in inhibition of ovalbumin-induced intense cell filtration
Mus musculus [5] = test: Immunomodulatory activity in mouse assessed as inhibition of allergic airway inflammation at 60 mg/kg, ip; set-up: dose 60 mg/kg
Mus musculus [6] = test: Antiinflammatory activity against collagen-induced arthritis in po dosed mouse assessed as synovial cell hyperplasia after 20 days
Mus musculus [7] = test: Immunomodulatory activity in ip dosed mouse lung assessed as reduction of eosinophils in bronchoalveolar lavage fluid

Question: What does the source list for `C[C@@]12C[C@H]3OC(=O)[C@@H]1CO[C@]14O[C@]5([C@H]2C1=O)[C@@](O)(CC[C@H]1[C@H]4C[C@H]2O[C@]24CC=CC(=O)[C@]14C)C(=O)O[C@@]35C`?
Answer: Activity (Mus musculus [1]): inactive; inhibition (Mus musculus [2]): Active; Activity (Mus musculus [3]): inactive; inhibition (Mus musculus [4]): Active; inhibition (Mus musculus [5]): inactive; Activity (Mus musculus [6]): Active; Activity (Mus musculus [7]): inactive

Question: Which Activity (Mus musculus [7]) does the source give for `C[C@@H]1C[C@H]2[C@@H]3CCC4=CC(=O)C=C[C@]4(C)[C@@]3(F)[C@@H](O)C[C@]2(C)[C@@]1(O)C(=O)CO` here?
Answer: Active
